Earlier results in article PMC9851200, “Multiparameter phenotypic screening for endogenous TFEB and TFE3 translocation identifies novel chemical series modulating lysosome function” (Autophagy, 2022).

What was measured:
Design in all cases: method as in original PKIS2 published data
[1] = target: T1, kinases (KINOMEscan panel) (Homo sapiens, UniProt O43318); conditions: Published KINOMEscan; ref original PKIS2 published data; cited from earlier work
T1 sequence (O43318 1-606): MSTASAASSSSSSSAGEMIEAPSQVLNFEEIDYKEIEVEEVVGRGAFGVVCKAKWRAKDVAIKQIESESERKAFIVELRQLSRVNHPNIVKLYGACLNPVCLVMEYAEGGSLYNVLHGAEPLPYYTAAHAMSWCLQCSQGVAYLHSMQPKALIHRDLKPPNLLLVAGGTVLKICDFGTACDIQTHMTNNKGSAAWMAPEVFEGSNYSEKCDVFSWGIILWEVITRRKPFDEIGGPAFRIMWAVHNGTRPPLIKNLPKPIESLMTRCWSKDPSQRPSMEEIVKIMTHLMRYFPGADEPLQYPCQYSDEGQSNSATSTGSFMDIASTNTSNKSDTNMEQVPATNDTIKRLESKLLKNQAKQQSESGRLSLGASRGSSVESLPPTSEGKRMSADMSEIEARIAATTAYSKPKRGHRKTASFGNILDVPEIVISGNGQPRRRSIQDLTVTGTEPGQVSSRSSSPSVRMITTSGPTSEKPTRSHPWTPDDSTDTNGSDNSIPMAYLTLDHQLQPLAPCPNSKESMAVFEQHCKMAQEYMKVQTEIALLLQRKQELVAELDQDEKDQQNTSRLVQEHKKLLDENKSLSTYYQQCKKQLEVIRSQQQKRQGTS

[2] = target: kinases (KINOMEscan panel) (Homo sapiens, UniProt P19784); conditions: CSNK2A2; Published KINOMEscan; ref original PKIS2 published data; cited from earlier work
[3] = target: T2, kinases (KINOMEscan panel) (Homo sapiens, UniProt Q12851); conditions: kinase MAP4K2; Published KINOMEscan; ref original PKIS2 published data; cited from earlier work
T2 sequence (Q12851 1-820): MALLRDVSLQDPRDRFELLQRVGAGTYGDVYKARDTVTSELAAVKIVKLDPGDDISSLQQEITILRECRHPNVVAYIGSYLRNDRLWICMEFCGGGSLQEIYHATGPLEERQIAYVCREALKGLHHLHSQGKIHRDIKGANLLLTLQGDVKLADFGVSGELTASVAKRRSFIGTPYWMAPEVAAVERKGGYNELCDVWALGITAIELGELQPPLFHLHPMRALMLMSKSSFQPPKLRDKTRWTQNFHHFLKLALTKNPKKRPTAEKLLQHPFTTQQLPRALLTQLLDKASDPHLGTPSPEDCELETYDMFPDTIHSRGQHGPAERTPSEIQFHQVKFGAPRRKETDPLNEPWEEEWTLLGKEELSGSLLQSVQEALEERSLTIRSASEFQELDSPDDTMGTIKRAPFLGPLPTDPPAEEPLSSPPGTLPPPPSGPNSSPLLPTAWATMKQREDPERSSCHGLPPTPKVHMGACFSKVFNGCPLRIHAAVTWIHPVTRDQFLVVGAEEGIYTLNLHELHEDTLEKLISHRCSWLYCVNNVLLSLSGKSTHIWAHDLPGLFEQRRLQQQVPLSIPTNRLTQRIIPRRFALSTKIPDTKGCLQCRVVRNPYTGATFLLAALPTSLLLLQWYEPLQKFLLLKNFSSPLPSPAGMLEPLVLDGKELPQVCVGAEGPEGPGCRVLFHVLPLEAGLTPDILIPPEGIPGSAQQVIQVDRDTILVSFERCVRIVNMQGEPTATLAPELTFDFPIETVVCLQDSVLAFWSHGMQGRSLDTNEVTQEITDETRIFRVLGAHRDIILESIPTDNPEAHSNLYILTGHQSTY

[4] = target: T3, kinases (KINOMEscan panel) (Homo sapiens, UniProt Q96PN8); conditions: kinase TSSK3; Published KINOMEscan; ref original PKIS2 published data; cited from earlier work
T3 sequence (Q96PN8 1-268): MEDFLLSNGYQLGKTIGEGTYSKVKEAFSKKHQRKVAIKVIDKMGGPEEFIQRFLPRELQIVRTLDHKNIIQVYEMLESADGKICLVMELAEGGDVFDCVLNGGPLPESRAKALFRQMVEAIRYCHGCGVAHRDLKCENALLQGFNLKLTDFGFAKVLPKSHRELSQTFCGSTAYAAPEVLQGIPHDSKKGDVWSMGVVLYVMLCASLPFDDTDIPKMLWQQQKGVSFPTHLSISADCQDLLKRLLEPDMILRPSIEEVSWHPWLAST

[5] = target: kinases (KINOMEscan panel) (Homo sapiens, UniProt Q96RR4); conditions: CAMKK2; Published KINOMEscan; ref original PKIS2 published data; cited from earlier work
[6] = target: kinases (KINOMEscan panel) (Homo sapiens, UniProt Q9BVS4); conditions: RIOK2; Published KINOMEscan; ref original PKIS2 published data; cited from earlier work
Chain of kinases (KINOMEscan panel) (Homo sapiens, UniProt Q9BVS4) (Q9BVS4 whole entry): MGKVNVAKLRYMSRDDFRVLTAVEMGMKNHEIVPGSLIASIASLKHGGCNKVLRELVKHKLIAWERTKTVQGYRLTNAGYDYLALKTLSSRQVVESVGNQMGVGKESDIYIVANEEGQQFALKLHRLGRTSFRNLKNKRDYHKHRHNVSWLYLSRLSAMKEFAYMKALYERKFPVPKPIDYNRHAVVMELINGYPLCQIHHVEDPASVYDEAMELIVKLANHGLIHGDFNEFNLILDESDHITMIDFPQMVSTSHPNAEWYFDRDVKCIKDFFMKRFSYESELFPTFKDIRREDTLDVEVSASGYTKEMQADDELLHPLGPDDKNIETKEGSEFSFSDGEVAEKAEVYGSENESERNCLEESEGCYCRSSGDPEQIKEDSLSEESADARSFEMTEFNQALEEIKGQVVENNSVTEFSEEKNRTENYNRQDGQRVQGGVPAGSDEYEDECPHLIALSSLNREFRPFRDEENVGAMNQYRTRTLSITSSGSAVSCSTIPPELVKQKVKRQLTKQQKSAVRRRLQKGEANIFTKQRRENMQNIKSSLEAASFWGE

Chain of kinases (KINOMEscan panel) (Homo sapiens, UniProt Q96RR4) (Q96RR4 whole entry): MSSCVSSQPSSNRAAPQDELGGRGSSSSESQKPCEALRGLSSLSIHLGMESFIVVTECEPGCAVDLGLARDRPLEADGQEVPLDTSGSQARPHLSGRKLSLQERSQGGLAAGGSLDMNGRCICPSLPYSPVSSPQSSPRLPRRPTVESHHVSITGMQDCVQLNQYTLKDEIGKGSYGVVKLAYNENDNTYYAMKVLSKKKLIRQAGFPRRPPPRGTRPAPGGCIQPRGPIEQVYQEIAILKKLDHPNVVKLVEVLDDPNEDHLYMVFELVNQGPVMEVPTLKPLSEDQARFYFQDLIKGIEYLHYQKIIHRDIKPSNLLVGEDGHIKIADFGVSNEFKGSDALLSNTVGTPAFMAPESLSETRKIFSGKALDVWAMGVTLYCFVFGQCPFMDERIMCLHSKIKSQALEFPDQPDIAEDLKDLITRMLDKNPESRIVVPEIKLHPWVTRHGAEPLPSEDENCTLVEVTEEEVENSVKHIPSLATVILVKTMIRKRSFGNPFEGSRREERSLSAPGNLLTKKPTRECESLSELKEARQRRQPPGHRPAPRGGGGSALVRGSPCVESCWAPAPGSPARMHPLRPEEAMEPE
Chain of kinases (KINOMEscan panel) (Homo sapiens, UniProt P19784) (P19784 whole entry): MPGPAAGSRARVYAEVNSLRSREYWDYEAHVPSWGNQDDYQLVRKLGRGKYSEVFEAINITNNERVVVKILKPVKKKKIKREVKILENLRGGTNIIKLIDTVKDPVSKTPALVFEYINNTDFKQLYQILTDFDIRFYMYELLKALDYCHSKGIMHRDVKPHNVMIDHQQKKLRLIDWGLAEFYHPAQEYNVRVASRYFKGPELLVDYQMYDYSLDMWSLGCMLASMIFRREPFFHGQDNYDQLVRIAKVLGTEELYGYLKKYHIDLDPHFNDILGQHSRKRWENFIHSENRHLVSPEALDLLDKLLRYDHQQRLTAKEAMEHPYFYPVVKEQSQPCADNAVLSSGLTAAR

In the case of `Cc1cccc(-c2nc(Nc3ccncc3)c3ccccc3n2)n1` [NK215], the “KINOMEscan MAP3K7” value [1] is listed as 0, the “KINOMEscan CSNK2A2” value [2] is listed as 0 and the “KINOMEscan MAP4K2” value [3] is listed as 0. For the same compound, the “KINOMEscan TSSK3” value [4] was 0, the “KINOMEscan CAMKK2” value [5] was 7 and the “KINOMEscan RIOK2” value [6] was 0.
